Test results reported in US6211372A, “Pharmaceutical compositions and methods for use” (priority 1999, dated 2001).

Tested on: dopamine release
Assay: Dopamine release (receptor activation/inhibition)
Format: biochemical
Settings: for Emax (dopamine release): amount released relative to (S)-(-)-nicotine or tetramethylammonium ion (TMA); for EC50: activation of dopamine release
Description: Dopamine release was measured using the techniques described in U.S. Pat. No. 5,597,919 to Dull et al. Release is expressed as a percentage of release obtained with a concentration of (S)-(-)-nicotine resulting in maximal effects. Reported EC50 values are expressed in nM, and Emax values represent the amount released relative to (S)-(-)-nicotine or tetramethylammonium ion (TMA), on a percentage basis.
Reported IC50 values are expressed in nM and represent the concentration resulting in 50% inhibition of agonist induced receptor activation. Emax values represent the amount released relative to (S)-(-)-nicotine on a percentage basis.

Q: `c1cncc(C2C3CC4CC(C3)CN2C4)c1` (stereo not drawn) [Sample No. 1, 1-aza-2-(3-pyridyl)-tricyclo[3.3.1.1^3,7]decane] was tested. Which “Emax (dopamine release)” value did it give?
A: 0%

Q: What does the source list for `Brc1cncc(C2C3CC4CC(C3)CN2C4)c1` (stereo not drawn) [Sample No. 2, 1-aza-2-[5-bromo(3-pyridyl)]tricyclo[3.3.1.1^3,7]decane]?
A: EC50: > 100 µM; Emax (dopamine release): 0%

Q: Which results are given for `Cl.Cl.Cl.Nc1cncc(C2C3CC4CC(C3)CN2C4)c1` (stereo not drawn) [Sample No. 3, 1-aza-2-[5-amino-(3-pyridyl)]tricyclo[3.3.1.1^3,7]decane trihydrochloride]?
A: EC50: > 100 µM; Emax (dopamine release): 0%

Q: How did the EC50 turn out when `CCOc1cncc(C2C3CC4CC(C3)CN2C4)c1` (stereo not drawn) [Sample No. 4, 1-aza-2-[5-ethoxy-(3-pyridyl)]-tricyclo-[3.3.1.1^3,7]decane] was run?
A: > 100 µM

Q: And the “Emax (dopamine release)” value?
A: 0%

Q: What does the source list for `CC(C)Oc1cncc(C2C3CC4CC(C3)CN2C4)c1` (stereo not drawn) [Sample No. 5, 1-aza-2-[5-isopropoxy-(3-pyridyl)]tricyclo[3.3.1.1^3,7]decane]?
A: EC50: > 100 µM; Emax (dopamine release): 0%
